The first assay concerns the target cGAS (Homo sapiens, UniProt Q8N884). As to the kind of experiment: Human cGAS enzyme assay (hcGAS IC50, in vitro), cGAMP formation by RapidFire MS. The class given is biochemical. Set-up: HumancGAS (amino acid 1-522) with an N-terminal 6×-His-tag and SUMO-tag; 6xHis (N); SUMO (N); made in house; host or cells: E. coli BL21(DE3) pLysS. The note with it: Table 1; 45 bp dsDNA-activated enzyme. As to the method:
6.1 Method: Human cGAS Enzyme Assay (hcGAS IC50 (In Vitro))
Human cGAS enzyme was incubated in the presence of a 45 base pair double stranded DNA to activate the enzyme and GTP and ATP as substrates. Compound activity was determined by measuring the effect of compounds on the formation of the product of the enzyme reaction, cGAMP, which is measured by a mass spectrometry method.
HumancGAS (amino acid 1-522) with an N-terminal 6×-His-tag and SUMO-tag was expressed in E. coli BL21(DE3) pLysS (Novagen) cells for 16 h at 18° C. Cells were lysed in buffer containing 25 mM Tris (pH 8), 300 mM NaCl, 10 mM imidazole, 10% glycerol, protease inhibitor cocktail (cOmplete™, EDTA-free, Roche) and DNase (5 μg/mL). […] Purified protein was concentrated to 1.7 mg/mL and stored at −80° C.
Compounds were delivered in 10 mM DMSO solution, serially diluted and transferred to the 384 well assay plate (Greiner #781201) using an Echo acoustic dispenser. Typically, 8 concentrations were used with the highest concentration at 10 μM in the final assay volume followed by ^˜1:5 dilution steps. DMSO concentration was set to 1% in the final assay volume. The 384 well assay plate contained 22 test compounds (column 1-22), and DMSO in column 23 and 24.
After the compound transfer, 15 μL of the enzyme-DNA-working solution (12 nM cGAS, 0.32 μM 45base pair DNA in assay buffer, 10 mM Tris pH 7.5/10 mM KCl/5 mM MgCl2/1 mM DTT) were added to each well from column 1-23 via a MultiDrop Combi dispenser. In column 24, 15 μl of assay buffer without enzyme/DNA were added as a low control.
The plates were then pre-incubated for 60 min at room temperature.
Following that, 10 μL of GTP (ThermoFisher #R0461)-ATP (Promega #V915B) mix in assay buffer were added to the assay plate (columns 1-24, 30 μM final concentration each) using a Multidrop Combi.
The plates were incubated again for 90 min at room temperature.
Following the incubation, the reaction was stopped by 80 μL of 0,1% formic acid in assay buffer containing 5 nM cyclic-di-GMP (Sigma #SML1228) used as internal standard for the mass spectrometry. The total volume/well was 105 μL.
The plates were centrifuged at 4000 rpm, 4° C., for 5 min.
The RapidFire autosampler was coupled to a binary pump (Agilent 1290) and a Triple Quad 6500 (ABSciex, Toronto, Canada). […] Aspiration time: 250 ms; Load time: 3000 ms; Elute time: 3000 ms; Wash volume: 500 μL.
The MS was operated in positive ion mode with HESI ion source, with a source temperature of 550 C, curtain gas=35, gas 1=65, and gas 2=80. Unit mass resolution in SRM mode. The following transitions and MS parameters (DP: declustering potential and CE: collision energy) for cGAMP and DicGMP were determined:
Internal standard: cyclic-di-GMP at 690.1/540, DP=130, CE=30.
The formation of cGAMP was monitored and evaluated as ratio to cyclic-di-GMP.
(§1) Data Evaluation and Calculation:
For data evaluation and calculation, the measurement of the low control was set as 0% control and the measurement of the high control was set as 100% control. The IC50 values were calculated using the standard 4 parameter logistic regression formula. Calculation: [y=(a−d)/(1+(x/c)^b)+d], a=low value, d=high value; x=conc M; c=1C50 M; b=slope
cGAS, sequence (Q8N884 whole entry): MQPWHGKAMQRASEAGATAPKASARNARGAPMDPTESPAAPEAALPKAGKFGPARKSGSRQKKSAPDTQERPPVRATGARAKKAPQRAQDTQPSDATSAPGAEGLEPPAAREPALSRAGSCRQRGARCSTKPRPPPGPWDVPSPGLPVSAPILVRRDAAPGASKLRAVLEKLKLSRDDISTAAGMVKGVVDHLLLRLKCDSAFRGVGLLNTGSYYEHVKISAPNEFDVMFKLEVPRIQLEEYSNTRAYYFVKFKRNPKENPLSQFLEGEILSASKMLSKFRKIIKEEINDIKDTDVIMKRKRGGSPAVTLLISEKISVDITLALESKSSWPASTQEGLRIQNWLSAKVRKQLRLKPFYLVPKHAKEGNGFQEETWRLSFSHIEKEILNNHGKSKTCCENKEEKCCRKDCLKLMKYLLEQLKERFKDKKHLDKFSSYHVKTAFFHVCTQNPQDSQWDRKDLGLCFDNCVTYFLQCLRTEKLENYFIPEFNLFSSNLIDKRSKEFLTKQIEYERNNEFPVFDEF
A word on the IC50: it is the concentration at which inhibition is half-maximal. Regarding `O=C(O)[C@@H]1C[C@H]2CN1c1nc(nc3c1oc1ccccc13)COCCCC(F)(F)C(=O)N1CCC(CC1)n1c(nc3ccccc31)O2` [Example 8.01], the IC50 came to 5.6 nM.
In turn, `C[C@H]1CN2CC[C@@H]1n1c(nc3ccccc31)O[C@H]1C[C@@H](C(=O)O)N(C1)c1nc(nc3c1oc1ccccc13)C(F)(F)COCCCC2=O` [Example 4.01] had an IC50 of 1.7 nM.
As to `C[C@H]1CN2CC[C@@H]1n1c(nc3ccccc31)O[C@H]1C[C@@H](C(=O)O)N(C1)c1nc(nc3c1oc1ccccc13)C(F)(F)CCCCC(F)(F)C2=O` [Example 1.17], the IC50 is 7.2 nM.
On the same count and under the same terms, with `C[C@H]1CN2CC[C@@H]1n1c(nc3cc(Cl)ccc31)O[C@H]1C[C@@H](C(=O)O)N(C1)c1nc(nc3c1oc1cc(Cl)ccc13)CCOCCCC2=O` [Example 1.08] the figure was 4.5 nM; with `C[C@H]1CN2CC[C@@H]1n1c(nc3ccccc31)O[C@H]1C[C@@H](C(=O)O)N(C1)c1nc(nc3c1oc1cc(Cl)ccc13)C(F)(F)CCCOCC2=O` [Example 1.22], 2.7 nM.
Turning to `C[C@H]1CN2CC[C@@H]1n1c(nc3ccccc31)O[C@H]1C[C@@H](C(=O)O)N(C1)c1nc(nc3c1oc1ccccc13)CCOCCOC2=O` (mixture of isomers) [Example 12.01], the IC50 came out at 8.9 nM.
On the same count and under the same terms, the result for `C[C@H]1CN2CC[C@@H]1n1c(nc3cc(Cl)ccc31)O[C@H]1C[C@@H](C(=O)O)N(C1)c1nc(nc3c1oc1ccccc13)C(F)(F)OCCCCC2=O` [Example 6.01] reads 3.5 nM; that for `C[C@H]1CN2CC[C@@H]1n1c(nc3cc(F)ccc31)O[C@H]1C[C@@H](C(=O)O)N(C1)c1nc(nc3c1oc1cc(F)ccc13)C(F)(F)CCCCCC2=O` [Example 1.15], 3.5 nM; that for `C[C@H]1CN2CC[C@@H]1n1c(nc3cc(Cl)ccc31)O[C@H]1C[C@@H](C(=O)O)N(C1)c1nc(nc3c1oc1ccccc13)COCCOCC2=O` [Example 1.11], 1.9 nM.

The test system of the next assay is IFN induction in cGAMP-stimulated THP1 cells. In words: cGAMP stimulated counter cell assay in THP1-Dual cells (THP1(cGAMP) IC50). The class given is cell-based, human. The note with it: Homo sapiens, THP-1; Table 1; counter assay, 10 μM cGAMP stimulation; read-out: THP(cGAMP) IC50.
Excerpt: 6.2 Method: Human cGAS Cell Assay and cGAMP Stimulated Counter Cell Assay (THP1(vir) IC50 and THP1(cGAMP) IC50)
For the counter assay, cells were stimulated by cGAMP (SigmaAldrich #SML1232) to activate the identical pathway independent and directly downstream of cGAS (measurement of THP1(cGAMP) IC50).
Pathway activity was monitored by measuring the Lucia luciferase activity induced by either DNA stimulated cGAS enzyme activity (measurement of THP1(vir) IC50) or by cGAMP directly (measurement of THP1(cGAMP) IC50, counter assay).
Compounds were delivered in 10 mM DMSO solution, serially diluted and transferred to the 384 well assay plate (Greiner #781201) using an Echo acoustic dispenser. Typically, 8 concentrations were used with the highest concentration at 10 μM in the final assay volume followed by ^˜1:5 dilution steps. DMSO concentration was set to 1% in the final assay volume. The 384 well assay plate contained […] (column 1-22), and DMSO in column 23 and 24.
Cells, cultivated according to manufacturer conditions, were harvested by centrifugation at 300 g/10 min and were then resuspended and diluted to 1.66E5 cells/ml in fresh cell culture medium (RPMI 1640 (Gibco #A10491-01), 10% FCS (Gibco #10500), 1× GlutaMax (Gibco #35050-061), 1× Pen/Strep solution (Gibco #15140-122), 100 μg/ml Normocin (InvivoGen #ant-nr), 100 μg/ml Zeocin (InvivoGen #ant-zn), 10 μg/ml Blasticidin S (Life Technologies #A11139-03)). The baculovirus solution was then added 1:200 (have varied according to virus batch) to the cells (measurement of THP1(vir) IC50).
30 μL of the cell/virus-mix were added to each well of the compound plate from column 1-23 via MultiDrop Combi dispenser (5000 cells/well). In column 24, 30 μl/5000 cells/well without virus were added as a low control.
The plates were then incubated for 18 h at 37° C. in a humidified incubator.
Following that, 15 μL of QuantiLuc detection reagent (InvivoGen #rep-qlcg5) were added to each well using a MultiDrop Combi. Measurement was done immediately after the addition using an EnVision reader (US-luminescence read-mode).
as §1
For data evaluation and calculation, the measurement of the low control was set as 0% control and the measurement of the high control was set as 100% control. The IC50 values were calculated using the standard 4 parameter logistic regression formula. Calculation: [y=(a−d)/(1+(x/c)^b)+d], a=low value, d=high value; x=conc M; c=IC50 M; b=slope
`O=C(O)[C@@H]1C[C@H]2CN1c1nc(nc3c1oc1ccccc13)COCCCC(F)(F)C(=O)N1CCC(CC1)n1c(nc3ccccc31)O2` [Example 8.01]: the IC50 was more than 10000 nM.
As to `C[C@H]1CN2CC[C@@H]1n1c(nc3ccccc31)O[C@H]1C[C@@H](C(=O)O)N(C1)c1nc(nc3c1oc1ccccc13)C(F)(F)COCCCC2=O` [Example 4.01], the half-inhibitory concentration (IC50) was more than 10000 nM.
For `C[C@H]1CN2CC[C@@H]1n1c(nc3ccccc31)O[C@H]1C[C@@H](C(=O)O)N(C1)c1nc(nc3c1oc1ccccc13)C(F)(F)CCCCC(F)(F)C2=O` [Example 1.17], the IC50 stood at 6600 nM.
With `C[C@H]1CN2CC[C@@H]1n1c(nc3cc(Cl)ccc31)O[C@H]1C[C@@H](C(=O)O)N(C1)c1nc(nc3c1oc1cc(Cl)ccc13)CCOCCCC2=O` [Example 1.08], the IC50 was determined as 9500 nM.
For the compound `C[C@H]1CN2CC[C@@H]1n1c(nc3ccccc31)O[C@H]1C[C@@H](C(=O)O)N(C1)c1nc(nc3c1oc1cc(Cl)ccc13)C(F)(F)CCCOCC2=O` [Example 1.22], the IC50 was more than 10000 nM.
On to `C[C@H]1CN2CC[C@@H]1n1c(nc3ccccc31)O[C@H]1C[C@@H](C(=O)O)N(C1)c1nc(nc3c1oc1ccccc13)CCOCCOC2=O` (mixture of isomers) [Example 12.01], for which the half-maximal inhibitory concentration (IC50) was more than 10000 nM.
`C[C@H]1CN2CC[C@@H]1n1c(nc3cc(Cl)ccc31)O[C@H]1C[C@@H](C(=O)O)N(C1)c1nc(nc3c1oc1ccccc13)C(F)(F)OCCCCC2=O` [Example 6.01]: the IC50 was more than 10000 nM.
Still for that read-out and setting: the result for `C[C@H]1CN2CC[C@@H]1n1c(nc3cc(F)ccc31)O[C@H]1C[C@@H](C(=O)O)N(C1)c1nc(nc3c1oc1cc(F)ccc13)C(F)(F)CCCCCC2=O` [Example 1.15] reads more than 10000 nM; that for `C[C@H]1CN2CC[C@@H]1n1c(nc3cc(Cl)ccc31)O[C@H]1C[C@@H](C(=O)O)N(C1)c1nc(nc3c1oc1ccccc13)COCCOCC2=O` [Example 1.11], not below 10000 nM.

The same assay, now with this note: Table 1; selectivity for cGAS-inhibition.
Take `O=C(O)[C@@H]1C[C@H]2CN1c1nc(nc3c1oc1ccccc13)COCCCC(F)(F)C(=O)N1CCC(CC1)n1c(nc3ccccc31)O2` [Example 8.01]: the “Ratio THP(cGAMP) IC50/THP(vir) IC50” value is 255.
On the same count and under the same terms, with `C[C@H]1CN2CC[C@@H]1n1c(nc3ccccc31)O[C@H]1C[C@@H](C(=O)O)N(C1)c1nc(nc3c1oc1ccccc13)C(F)(F)COCCCC2=O` [Example 4.01] the figure was more than 14442.
For the compound `C[C@H]1CN2CC[C@@H]1n1c(nc3ccccc31)O[C@H]1C[C@@H](C(=O)O)N(C1)c1nc(nc3c1oc1ccccc13)C(F)(F)CCCCC(F)(F)C2=O` [Example 1.17], the “Ratio THP(cGAMP) IC50/THP(vir) IC50” value came out at 519.
The same measure, in the same setting: with `C[C@H]1CN2CC[C@@H]1n1c(nc3cc(Cl)ccc31)O[C@H]1C[C@@H](C(=O)O)N(C1)c1nc(nc3c1oc1cc(Cl)ccc13)CCOCCCC2=O` [Example 1.08] the figure was 3928; with `C[C@H]1CN2CC[C@@H]1n1c(nc3ccccc31)O[C@H]1C[C@@H](C(=O)O)N(C1)c1nc(nc3c1oc1cc(Cl)ccc13)C(F)(F)CCCOCC2=O` [Example 1.22], more than 6579; with `C[C@H]1CN2CC[C@@H]1n1c(nc3ccccc31)O[C@H]1C[C@@H](C(=O)O)N(C1)c1nc(nc3c1oc1ccccc13)CCOCCOC2=O` (mixture of isomers) [Example 12.01], more than 42.
`C[C@H]1CN2CC[C@@H]1n1c(nc3cc(Cl)ccc31)O[C@H]1C[C@@H](C(=O)O)N(C1)c1nc(nc3c1oc1ccccc13)C(F)(F)OCCCCC2=O` [Example 6.01]: the “Ratio THP(cGAMP) IC50/THP(vir) IC50” value is more than 2225.
The same measure, in the same setting: with `C[C@H]1CN2CC[C@@H]1n1c(nc3cc(F)ccc31)O[C@H]1C[C@@H](C(=O)O)N(C1)c1nc(nc3c1oc1cc(F)ccc13)C(F)(F)CCCCCC2=O` [Example 1.15] the figure was more than 1408.
`C[C@H]1CN2CC[C@@H]1n1c(nc3cc(Cl)ccc31)O[C@H]1C[C@@H](C(=O)O)N(C1)c1nc(nc3c1oc1ccccc13)COCCOCC2=O` [Example 1.11]: the “Ratio THP(cGAMP) IC50/THP(vir) IC50” value is more than 2907.

For the origin of these results see patent US20240208997A1, “CYCLIC BENZIMIDAZOLE DERIVATIVES AS CGAS INHIBITORS” (Boehringer Ingelheim International GmbH, priority 2022, published 2024).
